In ChEMBL document CHEMBL5505993, “Identification of a ferritinophagy inducer via sinomenine modification for the treatment of colorectal cancer” (Eur J Med Chem, 2024) one finds IC50 data, which are given here for 28 molecules.

Data set [1] can be described thus: Cytotoxicity against human NCM460 cells assessed as inhibition of cell growth incubated for 48 hrs by CCK-8 assay. Format: toxicity, cell-based. (In general: Formazan colour is commonly taken as a measure of viable cells.)
Another data set relates to HT-29. Description: Cytotoxicity against human HT-29 cells assessed as inhibition of cell growth incubated for 48 hrs by CCK-8 assay. Format: functional, cell-based. The settings on record: HT-29, 48 h.
The test system of another data set is HCT-116. Description: Cytotoxicity against human HCT-116 cells assessed as inhibition of cell growth incubated for 48 hrs by CCK-8 assay. It is filed as functional, cell-based. The settings on record: HCT-116, 48 h.

Broadly, the IC50 is the point on the concentration scale where inhibition reaches its midpoint. Take `COC1=C[C@@H]2[C@@H]3Cc4ccc(OC)c(OC(=O)c5ccccc5)c4[C@]2(CCN3C)CC1=O`: the half-inhibitory concentration (IC50) at 48 h in data set [1] is above 50 µM. In addition, the IC50 in the data set on HT-29 and with HCT-116 was above 50 µM in each case.

For the molecule `CCCC(=O)Oc1c(OC)ccc2c1[C@@]13CCN(C)[C@@H](C2)[C@H]1C=C(OC)C(=O)C3`, in data set [1], the IC50 at 48 h was above 50 µM. Moreover, the IC50 in the data set on HT-29 and in the data set with HCT-116 was above 50 µM each time.

For the molecule `COCC(=O)Oc1c(OC)ccc2c1[C@@]13CCN(C)[C@@H](C2)[C@H]1C=C(OC)C(=O)C3`, the IC50 at 48 h in data set [1] was above 50 µM. For the same molecule, the IC50 in the data set with HT-29 and with HCT-116 was above 50 µM in each case.

Regarding `COC1=C[C@@H]2[C@@H]3Cc4ccc(OC)c(OC(=O)C(C)C)c4[C@]2(CCN3C)CC1=O`, the IC50 at 48 h in data set [1] was above 50 µM. Besides, the half-maximal inhibitory concentration (IC50) in the data set on HT-29 and in the data set on HCT-116 was above 50 µM each time.

With `C=C(Cl)C(=O)NCCCCCCCC(=O)Oc1c(OC)ccc2c1[C@@]13CCN(C)[C@@H](C2)[C@H]1C=C(OC)C(=O)C3`, the IC50 at 48 h in data set [1] was above 50 µM. The half-inhibitory concentration (IC50) came out at 17.8 µM in the data set on HT-29 and 19.6 µM with HCT-116.

As for `C=C(C)C(=O)Oc1c(OC)ccc2c1[C@@]13CCN(C)[C@@H](C2)[C@H]1C=C(OC)C(=O)C3`, the concentration for half-maximal inhibition (IC50) at 48 h in data set [1] is above 50 µM. For the same molecule, the values for the half-maximal inhibitory concentration (IC50) with HT-29 and in the data set on HCT-116 were above 50 µM and 61.4 µM, respectively.

As to `C=CC(=O)NCCCCCCCCCCCC(=O)Oc1c(OC)ccc2c1[C@@]13CCN(C)[C@@H](C2)[C@H]1C=C(OC)C(=O)C3`, the 50% inhibitory concentration (IC50) at 48 h in data set [1] worked out at 33.2 µM. Moreover, the figures for the half-maximal inhibitory concentration (IC50) in the data set with HT-29 and in the data set on HCT-116 were 7.14 µM and 20.2 µM, respectively.

On to `COC1=C[C@@H]2[C@@H]3Cc4ccc(OC)c(OC(=O)CCCCCCCNC(=O)/C=C/C(F)(F)F)c4[C@]2(CCN3C)CC1=O`, for which, in data set [1], the IC50 at 48 h is above 50 µM. The IC50 in the data set with HT-29 and with HCT-116 was above 50 µM throughout.

With `COC1=C[C@@H]2[C@@H]3Cc4ccc(OC)c(O)c4[C@]2(CCN3C)CC1=O` [SINOMENINE], the IC50 at 48 h in data set [1] is above 50 µM. Also, the half-maximal inhibitory concentration (IC50) in the data set on HT-29 and in the data set on HCT-116 was above 50 µM in each case.

As to `C=C(Cl)C(=O)Oc1c(OC)ccc2c1[C@@]13CCN(C)[C@@H](C2)[C@H]1C=C(OC)C(=O)C3`, the 50% inhibitory concentration (IC50) at 48 h in data set [1] turned out to be 35.2 µM. The 50% inhibitory concentration (IC50) was 8.66 µM in the data set with HT-29 and 12.9 µM in the data set with HCT-116.

On to `C=C(Cl)C(=O)NCCC(=O)Oc1c(OC)ccc2c1[C@@]13CCN(C)[C@@H](C2)[C@H]1C=C(OC)C(=O)C3`, for which the half-inhibitory concentration (IC50) at 48 h in data set [1] stood at 34.5 µM. The IC50 with HT-29 amounted to 9.45 µM; in the data set on HCT-116, 4.76 µM.

On to `COC1=C[C@@H]2[C@@H]3Cc4ccc(OC)c(OC(=O)C5CC5)c4[C@]2(CCN3C)CC1=O`, for which, in data set [1], the IC50 at 48 h is above 50 µM. Besides, the half-inhibitory concentration (IC50) in the data set on HT-29 and in the data set with HCT-116 was above 50 µM throughout.

With `CCCCCCC(=O)Oc1c(OC)ccc2c1[C@@]13CCN(C)[C@@H](C2)[C@H]1C=C(OC)C(=O)C3`, the IC50 at 48 h in data set [1] is above 50 µM. Moreover, the half-inhibitory concentration (IC50) was 31.9 µM with HT-29 and above 50 µM in the data set on HCT-116.

As for `C=CCCC(=O)Oc1c(OC)ccc2c1[C@@]13CCN(C)[C@@H](C2)[C@H]1C=C(OC)C(=O)C3`, the IC50 at 48 h in data set [1] was above 50 µM. For the same molecule, the IC50 in the data set on HT-29 and in the data set on HCT-116 was above 50 µM each time.

With `C=CC(=O)NCCC(=O)Oc1c(OC)ccc2c1[C@@]13CCN(C)[C@@H](C2)[C@H]1C=C(OC)C(=O)C3`, the IC50 at 48 h in data set [1] was above 50 µM. In addition, the IC50 in the data set with HT-29 and with HCT-116 was above 50 µM each time.

Take `COC1=C[C@@H]2[C@@H]3Cc4ccc(OC)c(OC(=O)CCCCCCCCCCCNC(=O)/C=C/C(F)(F)F)c4[C@]2(CCN3C)CC1=O`: the concentration for half-maximal inhibition (IC50) at 48 h in data set [1] came to 22.9 µM. In addition, the concentration for half-maximal inhibition (IC50) with HT-29 was found to be 8.71 µM; in the data set on HCT-116, 7.84 µM.

With `COC1=C[C@@H]2[C@@H]3Cc4ccc(OC)c(OC(=O)CCNC(=O)/C=C/C(F)(F)F)c4[C@]2(CCN3C)CC1=O`, the IC50 at 48 h in data set [1] is above 50 µM. For the same molecule, the half-maximal inhibitory concentration (IC50) in the data set on HT-29 and with HCT-116 was above 50 µM throughout.

For `COC1=C[C@@H]2[C@@H]3Cc4ccc(OC)c(OC(=O)/C=C/c5ccccc5)c4[C@]2(CCN3C)CC1=O`, the IC50 at 48 h in data set [1] is above 50 µM. The concentration for half-maximal inhibition (IC50) with HT-29 and in the data set with HCT-116 was above 50 µM each time.

For the molecule `COC1=C[C@@H]2[C@@H]3Cc4ccc(OC)c(OC(=O)CCl)c4[C@]2(CCN3C)CC1=O`, in data set [1], the IC50 at 48 h is above 50 µM. In addition, the IC50 was above 50 µM in the data set on HT-29 and 33.3 µM in the data set with HCT-116.

As for `C=CC(=O)NCCCCCCCC(=O)Oc1c(OC)ccc2c1[C@@]13CCN(C)[C@@H](C2)[C@H]1C=C(OC)C(=O)C3`, the 50% inhibitory concentration (IC50) at 48 h in data set [1] was above 50 µM. In addition, the 50% inhibitory concentration (IC50) with HT-29 and with HCT-116 was above 50 µM each time.

As for `COC1=C[C@@H]2[C@@H]3Cc4ccc(OC)c(OC(=O)c5ccc(OC)cc5)c4[C@]2(CCN3C)CC1=O`, the half-inhibitory concentration (IC50) at 48 h in data set [1] was above 50 µM. Further, the IC50 in the data set on HT-29 and in the data set on HCT-116 was above 50 µM in each case.

Turning to `CCO/C=C/C(=O)Oc1c(OC)ccc2c1[C@@]13CCN(C)[C@@H](C2)[C@H]1C=C(OC)C(=O)C3`, in data set [1], the concentration for half-maximal inhibition (IC50) at 48 h is above 50 µM. Further, the IC50 in the data set on HT-29 and in the data set with HCT-116 was above 50 µM in each case.

As to `COC1=C[C@@H]2[C@@H]3Cc4ccc(OC)c(OC(C)=O)c4[C@]2(CCN3C)CC1=O`, the 50% inhibitory concentration (IC50) at 48 h in data set [1] was above 50 µM. Besides, the 50% inhibitory concentration (IC50) with HT-29 and in the data set with HCT-116 was above 50 µM throughout.

With `COC1=C[C@@H]2[C@@H]3Cc4ccc(OC)c(OC(=O)c5ccc(Cl)cc5)c4[C@]2(CCN3C)CC1=O`, the half-maximal inhibitory concentration (IC50) at 48 h in data set [1] was above 50 µM. Also, the results for the half-inhibitory concentration (IC50) in the data set with HT-29 and in the data set with HCT-116 were 25.1 µM and above 50 µM, respectively.

Turning to `CCCCCCCCCCCC(=O)Oc1c(OC)ccc2c1[C@@]13CCN(C)[C@@H](C2)[C@H]1C=C(OC)C(=O)C3`, the IC50 at 48 h in data set [1] amounted to 9.85 µM. Besides, the figures for the IC50 in the data set with HT-29 and in the data set on HCT-116 were 4 µM and 5.69 µM, respectively.

For the molecule `COC1=C[C@@H]2[C@@H]3Cc4ccc(OC)c(OC(=O)/C=C/C(F)(F)F)c4[C@]2(CCN3C)CC1=O`, the IC50 at 48 h in data set [1] is 16 µM. Moreover, the figures for the concentration for half-maximal inhibition (IC50) with HT-29 and in the data set on HCT-116 were 5.99 µM and 6.01 µM, respectively.

On to `C=CC(=O)Oc1c(OC)ccc2c1[C@@]13CCN(C)[C@@H](C2)[C@H]1C=C(OC)C(=O)C3`, for which, in data set [1], the half-inhibitory concentration (IC50) at 48 h worked out at 32.5 µM. Moreover, the figures for the IC50 with HT-29 and in the data set with HCT-116 were 9.12 µM and 7.04 µM, respectively.

With `C/C=C/C(=O)Oc1c(OC)ccc2c1[C@@]13CCN(C)[C@@H](C2)[C@H]1C=C(OC)C(=O)C3`, in data set [1], the IC50 at 48 h is above 50 µM. For the same molecule, the IC50 in the data set on HT-29 and in the data set with HCT-116 was above 50 µM each time.
